Experimental data reported in paper PMC3410894, “Structural and Biochemical Basis for Development of Influenza Virus Inhibitors Targeting the PA Endonuclease” (PLoS Pathogens, 2012).
Read-outs that look alike come from different tables or passages of the source.

Key:
influenza A polymerase [1] = format: biochemical, influenza A virus
influenza A polymerase [2] = conditions: read-out: Reported IC50; cited from earlier work
[3] = system: H1N1 influenza A virus (A/PuertoRico/8/34); set-up: method as in PMID 22211528; conditions: plaque formation, MDCK cells, 72 h, measured previously; read-out: Antiviral Activity IC50; cited from earlier work
MDCK cells = conditions: cited from earlier work
PAN endonuclease = PAN endonuclease (Influenza A virus, UniProt Q5EP34); format: biochemical, H5N1 influenza virus A/Vietnam/1203/2004
[4] = system: H1N1 influenza A virus (A/PuertoRico/8/34); test: microbe, parasite or virus in culture; format: cell-based; conditions: H1N1, MDCK, 72 h, read-out: Antiviral Activity IC50
in vitro = conditions: dog
influenza virus [5] = conditions: cited from earlier work
PAN = PAN (Influenza A virus, UniProt Q5EP34); format: binding, H5N1 influenza virus A/Vietnam/1203/2004
influenza virus [6] = conditions: mouse, in vivo; cited from earlier work

In the case of `CC(=O)C=C(O)C(=O)O` [Compound 14], the “Fold reduction in potency compared with 2” value (influenza A polymerase [1]) is given as 14 fold and the IC50 (influenza A polymerase [2]) is given as 307 µM.

For `CC(C)C(=O)C=C(O)C(=O)O` [Compound 13], the “Fold reduction in potency compared with 2” value (influenza A polymerase [1]) is listed as 2.6 fold and the IC50 (influenza A polymerase [2]) is listed as 56.7 µM.

In the case of `C[C@@H](NC(=O)c1nc(-c2cnccn2)[nH]c(=O)c1O)c1ccccc1` [Compound 26], the IC50 [3] is given as 12.68 ± 0.08 µM and the CC50 (MDCK cells) is given as over 60 µM.

With `Cn1cnc(-c2nc(C(=O)O)c(O)c(=O)[nH]2)c1` [Compound 4, 5-hydroxy-2-(1-methyl-1H-imidazol-4-yl)-6-oxo-1,6-dihydropyrimidine-4-carboxylic acid] the “Inhibition of PAN endonuclease activity” value (PAN endonuclease) was “inhibit PAN activity”, the IC50 [4] was over 50 µM and the CC50 at 72 h (in vitro) was over 60 µM.

In the case of `O=C(CC(O)C(=O)O)c1ccccc1` (centres unmarked) [Compound 16], the IC50 (influenza A polymerase [2]) is given as over 500 µM.

For `O=C1Cc2ccccc2CC(=O)N1O` [Compound 11], the IC50 (influenza A polymerase [2]) is listed as over 1000 µM.

In the case of `CC(C)CC1=N/C(=C\c2ccc(F)cc2)C(=O)N(O)C1=O` [Compound 8], the “Fold increase in potency compared with Flutimide” value (influenza A polymerase [1]) is listed as 6 fold and the IC50 (influenza A polymerase [2]) is listed as 0.9 µM.

In the case of `O=C(O)/C(O)=C/C(=O)C1(Cc2ccc(Cl)cc2)CCCN(S(=O)(=O)Cc2ccccc2)C1` (centres unmarked) [Compound 21], the IC50 (influenza A polymerase [2]) is given as 0.19 µM and the “Inhibition of viral replication in cell culture (qualitative)” value (shortened to “Inhibition … in cell culture (qualitative)”) (influenza virus [5]) is given as “dose-dependent inhibition of viral replication in cell culture”.

In the case of `CC(C)/C=C1\N=C(CC(C)C)C(=O)N(O)C1=O` [Compound 7, Flutimide], the IC50 (influenza A polymerase [2]) is given as 5.5 µM.

In the case of `NC(CC(=O)c1ccccc1)C(=O)O` (centres unmarked) [Compound 17], the IC50 (influenza A polymerase [2]) is given as over 500 µM.

For `O=C(O)/C(O)=C/S(=O)(=O)c1ccccc1` [Compound 19], the IC50 (influenza A polymerase [2]) is given as over 500 µM.

In the case of `CC(C)CC1=N/C(=C\c2ccc(F)cc2)C(=O)NC1=O` [Compound 9], the IC50 (influenza A polymerase [2]) is given as over 365 µM.

In the case of `O=C(O)c1cccc(O)c1O` [Compound 6, dihydroxybenzoic acid], the “Inhibition of PAN endonuclease activity” value (PAN endonuclease) is reported as “little ability to inhibit PAN endonuclease activity”.

For `O=C(O)/C(O)=C/C(=O)C1(Cc2ccc(Cl)cc2)CCN(CC2CCCCC2)CC1` [Compound 22], the “Inhibition … in cell culture (qualitative)” value (influenza virus [5]) is listed as “dose-dependent inhibition of viral replication in cell culture”.

For “2,4-dioxo-4-phenylbutanoic acid [Compound 2]”, the “Inhibition of PAN endonuclease activity” value (PAN endonuclease) was “inhibited PAN enzymatic activity in a dose-dependent manner” and the “ITC binding stoichiometry N (compound per PAN)” value (PAN) was 1.86.

In the case of `COC(=O)c1nc(-c2cn(C)cn2)[nH]c(=O)c1O` [Compound 23], the IC50 [4] is reported as over 50 µM and the CC50 at 72 h (in vitro) is reported as 53.2 ± 0.9 µM.

In the case of `O=C(O)c1nc(-c2cnccn2)nc(O)c1O` [Compound 24], the IC50 [3] is given as over 50 µM and the CC50 (MDCK cells) is given as over 60 µM.

In the case of `O=C(O)/C(O)=C/C(=O)C1(Cc2ccc(Cl)cc2)CCN(Cc2ccccc2)CC1` [Compound 3, L-742,001], the “Inhibition of PAN endonuclease activity” value (PAN endonuclease) is given as “inhibited PAN enzymatic activity in a dose-dependent manner”, the IC50 (influenza virus [5]; read-out: IC50, inhibition of viral replication in cell culture) is given as 0.35 µM and the “Inhibition of viral replication in mice (qualitative)” value (influenza virus [6]) is given as “dose-dependent inhibition of viral replication”.

With `O=C1Cc2ccccc2C(=O)N1O` [Compound 1] the “Inhibition of PAN endonuclease activity” value (PAN endonuclease) was “inhibited PAN enzymatic activity in a dose-dependent manner”.

With `CC(=O)Nc1cccc(-c2nc(C(=O)O)c(O)c(=O)[nH]2)c1` [Compound 5, 2-(3-acetamidophenyl)-5-hydroxy-6-oxo-1,6-dihydropyrimidine-4-carboxylic acid] the “Inhibition of PAN endonuclease activity” value (PAN endonuclease) was “inhibit PAN activity”, the IC50 [4] was over 50 µM and the CC50 at 72 h (in vitro) was 48.7 ± 1.2 µM.

In the case of `O=C(O)/C(O)=C/C(=O)C1(Cc2ccc(Cl)cc2)CCCN(Cc2ccccc2)C1` [Compound 20, L-735,882], the IC50 (influenza A polymerase [2]) is given as 1.1 µM and the “Inhibition … in cell culture (qualitative)” value (influenza virus [5]) is given as “dose-dependent inhibition of viral replication in cell culture”.

Work on `COC(=O)c1nc(-c2cnccn2)[nH]c(=O)c1O` [Compound 25] yielded an IC50 [4] of over 50 µM and a CC50 at 72 h (in vitro) of over 60 µM.
